Measured values as given in patent publication US20120231450A1, “NOVEL PACEMAKER CELL” (priority 2009, published 2012).

Assays:
[1] = system: HCN4-GFP positive cells derived from H7 embryoid body (pacemaker cells); assay: Patch clamp measurement of the beating rate (spontaneous excitation) of the pacemaker cells; type: cell-based, human; conditions: for effect on beating rate of the pacemaker cells (in words): drug added to perfusion solution, patch clamp
Protocol: Patch clamp: Cells which had been collected by cell sorting were seeded on gelatin-coated, 8-mm diameter cover slips (Warner Instruments) in a number of about 1,500 cells. On or after the next day, a patch clump method was used to observe the automaticity and to analyze functions of ion channels.
The quantification of electrical activities by a patch clump method and of contraction by video recording was carried out.
The quantification of electrical activities by a patch clump method was carried out.
It was ascertained that the beating rate of the pacemaker cells according to the present invention was increased by means of isoproterenol, a sympathetic stimulant, and decreased by means of carbachol, a parasympathetic stimulant. In these experiments, a patch clamp method was used to measure directly electrical phenomena (spontaneous excitation) from the pacemaker cells. To the perfusion solution were added isoproterenol, a sympathetic stimulant, which increased [sic], and then carbachol, a parasympathetic stimulant, to examine their effects.

[2] = system: heart of a rat with atrioventricular block; assay: Intraperitoneal isoproterenol in rat with atrioventricular block implanted with pacemaker cells, electrocardiogram; type: in vivo; conditions: isoproterenol injected into the peritoneal cavity; AVB rat with implants; FIG. 19
Protocol: Male ICR rats of 10 weeks old were used. Rats were administered with a 0.2 ml injection of an anesthetic (0.2% pentobarbital, MiliQ). Breathing assistance was provided by a mechanical ventilator and electrocardiogram monitoring was performed. A thoracotomy was made using an electrosurgical knife and 15 μl of 30% glycerol was injected using a microsyringe, into a place where the pulmonary artery is attached to the heart. It was ascertained, from the electrocardiogram, whether AVE wave forms (decrease in the beating rate, independent P and QRS waves) appeared when the injection allowed the atrioventricular node to be damaged. If AVB wave forms were not identified, injection of glycerol was done again. Thirty minutes after AVB wave forms were identified, the chest was closed after AVB wave forms were identified on the electrocardiogram. The ventilator was removed from each of the rats, which were subjected to oxygen inhalation at 37° C. When recovered from anesthesia, the rats were returned back to their cages. Pacemaker cells which were GFP positive cells were selected and collected by cell sorting. The pacemaker cells were collected in conical tubes, and then centrifuged at 1,000 rpm for 5 minutes to form a cell pellet, which was then suspended in differentiation induction medium. […]

SMILES | beating rate in the presence of carbachol ([1]; carbachol in perfusion solution, after isoproterenol washout, before: 17 beats per 10 seconds, FIG. 16) [beats per 10 seconds] | beating rate after washing out of carbachol ([1]; carbachol washed out, FIG. 16) [beats per 10 seconds] | effect on beating rate of the pacemaker cells (in words) [1] | beating rate in the presence of isoproterenol ([1]; 10^−5 M isoproterenol in perfusion solution, before: 54 beats per 10 seconds, FIG. 16) [beats per 10 seconds] | beating rate after washing out of isoproterenol ([1]; washout after 10^−5 M isoproterenol, FIG. 16) [beats per 10 seconds] | ventricular rhythm resulting from the implanted pacemaker cells after isoproterenol [2]
C[N+](C)(C)CCOC(N)=O [carbachol] | 8 | 14 | decreased | – | – | –
CC(C)NCC(O)c1ccc(O)c(O)c1 (stereo not shown) [isoproterenol] | – | – | increased | 61 | 45 | accelerated (tachycardia)
